According to ChEMBL document CHEMBL1201861, “Genomics of Drug Sensitity in Cancer screening data, Wellcome Trust Sanger Institute”:

Assays:
COLO-741 = assay: cells; assay type: functional, cell-based; details: Homo sapiens
Description: SANGER: Inhibition of human COLO-741 cell growth in a cell viability assay.

COR-L23 = assay: cells; assay type: functional, cell-based; details: Homo sapiens;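 note: cell viability assay measuring how strongly compounds suppress growth of COR-L23 cells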
Description: SANGER: Inhibition of human COR-L23 cell growth in a cell viability assay.

D-392MG = assay: cells; assay type: functional, cell-based; details: Homo sapiens
D-542MG = assay: cells; assay type: functional, cell-based; details: Homo sapiens
Description: SANGER: Inhibition of human D-542MG cell growth in a cell viability assay.

DMS-53 = assay: cells; assay type: functional, cell-based; details: Homo sapiens;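 note: cell viability assay measuring growth inhibition of human DMS-53 cells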
Description: SANGER: Inhibition of human DMS-53 cell growth in a cell viability assay.

Detroit 562 = assay: cells; assay type: functional, cell-based; details: Homo sapiens;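 note: growth inhibition of human Detroit 562 cells, read out by a cell viability assay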
Description: SANGER: Inhibition of human Detroit562 cell growth in a cell viability assay.

ECC12 = assay: cells; assay type: functional, cell-based; details: Homo sapiens
Description: SANGER: Inhibition of human ECC12 cell growth in a cell viability assay.

ECC4 = assay: cells; assay type: functional, cell-based, Homo sapiens; details: Homo sapiens, ECC4;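 note: growth inhibition of ECC4 cells, read out with a cell viability assay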
Description: SANGER: Inhibition of human ECC4 cell growth in a cell viability assay.

EFO-21 = assay: cells; assay type: functional, cell-based; details: Homo sapiens;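 note: growth inhibition of EFO-21 cells measured with a viability assay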
Description: SANGER: Inhibition of human EFO-21 cell growth in a cell viability assay.

EW-24 = assay: cells; assay type: functional, cell-based, Homo sapiens; details: Homo sapiens, EW-24;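 note: human EW-24 cancer cell line, growth inhibition read out via a cell viability assay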
Description: SANGER: Inhibition of human EW-24 cell growth in a cell viability assay.

GDM-1 = assay: cells; assay type: functional, cell-based, Homo sapiens; details: Homo sapiens, GDM-1; read-out: IC50;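 note: cell viability readout used to measure growth inhibition of human GDM-1 cells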
Description: SANGER: Inhibition of human GDM-1 cell growth in a cell viability assay.

HCC1143 = assay: cells; assay type: functional, cell-based; details: Homo sapiens;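 note: growth inhibition of human HCC1143 cells, read out with a cell viability assay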
Description: SANGER: Inhibition of human HCC1143 cell growth in a cell viability assay.

HMV-2 cell line = assay: cells; assay type: functional, cell-based; details: Homo sapiens;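 note: growth inhibition of HMV-II cells, read out with a cell viability assay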
Description: SANGER: Inhibition of human HMV-II cell growth in a cell viability assay.

LC-1F = assay: cells; assay type: functional, cell-based, Homo sapiens; details: Homo sapiens, LC-1F;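 note: growth inhibition of human LC-1F cells, read out with a cell viability assay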
Description: SANGER: Inhibition of human LC-1F cell growth in a cell viability assay.

LCLC-97TM1 = assay: cells; assay type: functional, cell-based; details: Homo sapiens;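 note: cell viability assay measuring growth inhibition of human LCLC-97TM1 cells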
Description: SANGER: Inhibition of human LCLC-97TM1 cell growth in a cell viability assay.

LOUCY = assay: cells; assay type: functional, cell-based, Homo sapiens; details: Homo sapiens, LOUCY;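 note: growth inhibition of human LOUCY cells, read out with a cell viability assay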
Description: SANGER: Inhibition of human LOUCY cell growth in a cell viability assay.

LoVo = assay: cells; assay type: functional, cell-based; details: Homo sapiens;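 note: growth inhibition of human LoVo cells, read out with a cell viability assay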
Description: SANGER: Inhibition of human LoVo cell growth in a cell viability assay.

MCF7 = assay: cells; assay type: functional, cell-based; details: Homo sapiens;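 note: growth inhibition of human MCF7 cells, read out with a cell viability assay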
Description: SANGER: Inhibition of human MCF7 cell growth in a cell viability assay.

MRK-nu-1 = assay: cells; assay type: functional, cell-based, Homo sapiens; details: Homo sapiens, MRK-nu-1;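 note: cell viability assay measuring growth suppression of human MRK-nu-1 cells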
Description: SANGER: Inhibition of human MRK-nu-1 cell growth in a cell viability assay.

NB12 = assay: cells; assay type: functional, cell-based; details: Homo sapiens;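 note: growth inhibition of human NB12 cells, read out by a cell viability assay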
Description: SANGER: Inhibition of human NB12 cell growth in a cell viability assay.

NCI-H1693 = assay: cells; assay type: functional, cell-based; details: Homo sapiens;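 note: growth inhibition of the human cell line, read out with a cell viability assay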
Description: SANGER: Inhibition of human NCI-H1693 cell growth in a cell viability assay.

NCI-H1792 = assay: cells; assay type: functional, cell-based; details: Homo sapiens;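 note: growth inhibition of human NCI-H1792 cells, read out as cell viability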
Description: SANGER: Inhibition of human NCI-H1792 cell growth in a cell viability assay.

NCI-H1963 = assay: cells; assay type: functional, cell-based, Homo sapiens; details: Homo sapiens, NCI-H1963;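 note: cell growth inhibition of the human line, determined with a cell viability assay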
Description: SANGER: Inhibition of human NCI-H1963 cell growth in a cell viability assay.

NCI-H358 = assay: cells; assay type: functional, cell-based; details: Homo sapiens;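 note: growth inhibition of NCI-H358 human cells, read out with a cell viability assay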
Description: SANGER: Inhibition of human NCI-H358 cell growth in a cell viability assay.

NCI-H727 = assay: cells; assay type: functional, cell-based; details: Homo sapiens;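 note: growth inhibition of human NCI-H727 cells, read out with a cell viability assay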
Description: SANGER: Inhibition of human NCI-H727 cell growth in a cell viability assay.

OAW-42 = assay: cells; assay type: functional, cell-based; details: Homo sapiens;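 note: growth inhibition of OAW-42 cells, read out with a cell viability assay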
Description: SANGER: Inhibition of human OAW-42 cell growth in a cell viability assay.

OVCAR-3 = assay: cells; assay type: functional, cell-based; details: Homo sapiens;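 note: growth inhibition of human OVCAR-3 cells, determined by a cell viability assay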
Description: SANGER: Inhibition of human OVCAR-3 cell growth in a cell viability assay.

PC-14 = assay: cells; assay type: functional, cell-based; details: Homo sapiens;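 note: cell viability assay measuring inhibition of PC-14 cell growth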
Description: SANGER: Inhibition of human PC-14 cell growth in a cell viability assay.

PLC-PRF-5 = assay: cells; assay type: functional, cell-based; details: Homo sapiens;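 note: growth inhibition of human PLC-PRF-5 cells, read out with a viability assay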
Description: SANGER: Inhibition of human PLC-PRF-5 cell growth in a cell viability assay.

RERF-LC-MS = assay: cells; assay type: functional, cell-based; details: Homo sapiens;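 note: growth inhibition of human RERF-LC-MS cells, read out by a cell viability assay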
Description: SANGER: Inhibition of human RERF-LC-MS cell growth in a cell viability assay.

RL = assay: cells; assay type: functional, cell-based, Homo sapiens; details: Homo sapiens, RL
Description: SANGER: Inhibition of human RL cell growth in a cell viability assay.

SCC-9 = assay: cells; assay type: functional, cell-based; details: Homo sapiens;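 note: Read-out is a cell viability assay, with values giving inhibition of cell growth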
Description: SANGER: Inhibition of human SCC-9 cell growth in a cell viability assay.

SK-CO-1 = assay: cells; assay type: functional, cell-based; details: Homo sapiens;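 note: growth inhibition of SK-CO-1 cells, determined by a viability readout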
Description: SANGER: Inhibition of human SK-CO-1 cell growth in a cell viability assay.

SK-MEL3 = assay: cells; assay type: functional, cell-based, SK-MEL-3; details: Homo sapiens;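 note: growth inhibition of human SK-MEL-3 cells, read out with a cell viability assay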
Description: SANGER: Inhibition of human SK-MEL-3 cell growth in a cell viability assay.

SNG-M = assay: cells; assay type: functional, cell-based; details: Homo sapiens
Description: SANGER: Inhibition of human SNG-M cell growth in a cell viability assay.

SNU-387 = assay: cells; assay type: functional, cell-based; details: Homo sapiens
Description: SANGER: Inhibition of human SNU-387 cell growth in a cell viability assay.

SNU-475 = assay: cells; assay type: functional, cell-based; details: Homo sapiens
Description: SANGER: Inhibition of human SNU-475 cell growth in a cell viability assay.

SW-620 = assay: cells; assay type: functional, cell-based; details: Homo sapiens;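 note: growth inhibition of human SW-620 cells, measured by a cell viability assay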
Description: SANGER: Inhibition of human SW620 cell growth in a cell viability assay.

SW837 = assay: cells; assay type: functional, cell-based; details: Homo sapiens;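 note: growth inhibition of SW837 cells, determined with a cell viability assay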
Description: SANGER: Inhibition of human SW837 cell growth in a cell viability assay.

TCC-SUP = assay: cells; assay type: functional, cell-based; details: Homo sapiens;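 note: growth inhibition of TCC-SUP cells, read out with a cell viability assay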
Description: SANGER: Inhibition of human TCCSUP cell growth in a cell viability assay.

AU565 = assay: cells; assay type: functional, cell-based; details: Homo sapiens;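 note: cell viability assay measuring growth inhibition of human AU565 cells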
Description: SANGER: Inhibition of human AU565 cell growth in a cell viability assay.

BEN = assay: cells; assay type: functional, cell-based; details: Homo sapiens;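 note: growth inhibition of the BEN cell line, read out with a cell viability assay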
Description: SANGER: Inhibition of human BEN cell growth in a cell viability assay.

BFTC-905 = assay: cells; assay type: functional, cell-based; details: Homo sapiens
Description: SANGER: Inhibition of human BFTC-905 cell growth in a cell viability assay.

C-4-II = assay: SANGER: Inhibition of human C-4-II cell growth in a cell viability assay.; assay type: functional, cell-based
UACC-812 = assay: cells; assay type: functional, cell-based; details: Homo sapiens
Description: SANGER: Inhibition of human UACC-812 cell growth in a cell viability assay.

UACC-893 = assay: cells; assay type: functional, cell-based; details: Homo sapiens
Description: SANGER: Inhibition of human UACC-893 cell growth in a cell viability assay.

CCF-STTG1 = assay: cells; assay type: functional, cell-based; details: Homo sapiens;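 note: growth inhibition of human CCF-STTG1 cells, determined with a cell viability read-out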
Description: SANGER: Inhibition of human CCF-STTG1 cell growth in a cell viability assay.

CHP-212 = assay: cells; assay type: functional, cell-based; details: Homo sapiens
Description: SANGER: Inhibition of human CHP-212 cell growth in a cell viability assay.

CMK = assay: cells; assay type: functional, cell-based, Homo sapiens; details: Homo sapiens, CMK;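 note: growth inhibition of CMK cells, read out as cell viability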
Description: SANGER: Inhibition of human CMK cell growth in a cell viability assay.

COLO 205 = assay: cells; assay type: functional, cell-based; details: Homo sapiens
Description: SANGER: Inhibition of human COLO-205 cell growth in a cell viability assay.

COC(=O)[C@H](CCSC)NC(=O)c1ccc(NC[C@@H](N)CS)cc1-c1ccccc1
IC50 (COLO-741): > 1.02 µM
IC50 (COR-L23): > 1.02 µM
IC50 (D-392MG): > 1.02 µM
IC50 (D-542MG): > 1.02 µM
IC50 (DMS-53): > 1.02 µM
IC50 (Detroit 562): > 1.02 µM
IC50 (ECC12): > 1.02 µM
IC50 (ECC4): > 1.02 µM
IC50 (EFO-21): > 1.02 µM
IC50 (EW-24): > 1.02 µM
IC50 (GDM-1): > 1.02 µM
IC50 (HCC1143): > 1.02 µM
IC50 (HMV-2 cell line): > 1.02 µM
IC50 (LC-1F): > 1.02 µM
IC50 (LCLC-97TM1): > 1.02 µM
IC50 (LOUCY): > 1.02 µM
IC50 (LoVo): > 1.02 µM
IC50 (MCF7): > 1.02 µM
IC50 (MRK-nu-1): > 1.02 µM
IC50 (NB12): > 1.02 µM
IC50 (NCI-H1693): > 1.02 µM
IC50 (NCI-H1792): > 1.02 µM
IC50 (NCI-H1963): > 1.02 µM
IC50 (NCI-H358): > 1.02 µM
IC50 (NCI-H727): > 1.02 µM
IC50 (OAW-42): > 1.02 µM
IC50 (OVCAR-3): > 1.02 µM
IC50 (PC-14): > 1.02 µM
IC50 (PLC-PRF-5): > 1.02 µM
IC50 (RERF-LC-MS): > 1.02 µM
IC50 (RL): > 1.02 µM
IC50 (SCC-9): > 1.02 µM
IC50 (SK-CO-1): > 1.02 µM
IC50 (SK-MEL3): > 1.02 µM
IC50 (SNG-M): > 1.02 µM
IC50 (SNU-387): > 1.02 µM
IC50 (SNU-475): > 1.02 µM
IC50 (SW-620): > 1.02 µM
IC50 (SW837): > 1.02 µM
IC50 (TCC-SUP): > 1.02 µM
IC50 (AU565): > 1.02 µM
IC50 (BEN): > 1.02 µM
IC50 (BFTC-905): > 1.02 µM
IC50 (C-4-II): > 1.02 µM
IC50 (UACC-812): > 1.02 µM
IC50 (UACC-893): > 1.02 µM
IC50 (CCF-STTG1): > 1.02 µM
IC50 (CHP-212): > 1.02 µM
IC50 (CMK): > 1.02 µM
IC50 (COLO 205): > 1.02 µM

O=S(=O)(O)c1ccc2cc(/N=N/c3cc(S(=O)(=O)O)c4cccnc4c3O)ccc2c1
IC50 (COLO-741): > 16 µM
IC50 (COR-L23): > 16 µM
IC50 (D-392MG): > 16 µM
IC50 (D-542MG): > 16 µM
IC50 (DMS-53): > 16 µM
IC50 (Detroit 562): > 16 µM
IC50 (ECC12): > 16 µM
IC50 (ECC4): > 16 µM
IC50 (EFO-21): > 16 µM
IC50 (EW-24): > 16 µM
IC50 (GDM-1): > 16 µM
IC50 (HCC1143): > 16 µM
IC50 (HMV-2 cell line): > 16 µM
IC50 (LC-1F): > 16 µM
IC50 (LCLC-97TM1): > 16 µM
IC50 (LOUCY): > 16 µM
IC50 (LoVo): > 16 µM
IC50 (MCF7): > 16 µM
IC50 (MRK-nu-1): > 16 µM
IC50 (NB12): > 16 µM
IC50 (NCI-H1693): > 16 µM
IC50 (NCI-H1792): > 16 µM
IC50 (NCI-H1963): > 16 µM
IC50 (NCI-H358): > 16 µM
IC50 (NCI-H727): > 16 µM
IC50 (OAW-42): > 16 µM
IC50 (OVCAR-3): > 16 µM
IC50 (PC-14): > 16 µM
IC50 (PLC-PRF-5): > 16 µM
IC50 (RERF-LC-MS): > 16 µM
IC50 (RL): > 16 µM
IC50 (SCC-9): > 16 µM
IC50 (SK-CO-1): > 16 µM
IC50 (SK-MEL3): > 16 µM
IC50 (SNG-M): > 16 µM
IC50 (SNU-387): > 16 µM
IC50 (SNU-475): > 16 µM
IC50 (SW-620): > 16 µM
IC50 (SW837): > 16 µM
IC50 (TCC-SUP): > 16 µM
IC50 (AU565): > 16 µM
IC50 (BEN): > 16 µM
IC50 (BFTC-905): > 16 µM
IC50 (C-4-II): > 16 µM
IC50 (UACC-812): > 16 µM
IC50 (UACC-893): > 16 µM
IC50 (CCF-STTG1): > 16 µM
IC50 (CHP-212): > 16 µM
IC50 (CMK): > 16 µM
IC50 (COLO 205): > 16 µM
